Source: publication PMC12207908, “The broad‐spectrum antimicrobial peptide BMAP‐27B potentiates carbapenems against NDM‐producing pathogens in food animals” (mLife, 2025)
In brackets after ≈: the same amount, converted by molar mass.

Legend:
Assay in all cases: MIC, broth microdilution
Type in all cases: cell-based
[1] = tested on: CREC2; settings: Escherichia coli, MHB, 1 × 10^6 CFU/ml, 16–18 h, 37°C, independent triplicates
Procedure: (§1) The MIC of BMAP‐27B and other antibiotics was determined using the broth microdilution method, following the guidelines established by the Clinical and Laboratory Standards Institute (CLSI). Briefly, the bacterial cultures were grown to the logarithmic growth phase and subsequently diluted in Mueller–Hinton broth (MHB) to achieve a final concentration of 1 × 10^6 CFU/ml. BMAP‐27B and the other antibiotics were prepared in twofold serial dilutions in MHB and mixed with an equal volume of bacterial suspension in 96‐well polypropylene microtiter plates.

[2] = tested on: CREC3; settings: Escherichia coli, MHB, 1 × 10^6 CFU/ml, 16–18 h, 37°C, independent triplicates
Procedure: as §1

[3] = tested on: CRCB1; settings: Citrobacter, MHB, 1 × 10^6 CFU/ml, 16–18 h, 37°C, independent triplicates
Procedure: as §1

[4] = tested on: CREC6; settings: Escherichia coli, MHB, 1 × 10^6 CFU/ml, 16–18 h, 37°C, independent triplicates
Procedure: as §1

[5] = tested on: CRCB3; settings: Citrobacter, MHB, 1 × 10^6 CFU/ml, 16–18 h, 37°C, independent triplicates
Procedure: as §1

[6] = tested on: P. aeruginosa UCBPP-PA01; settings: Pseudomonas aeruginosa, UCBPPPA01, MHB, 1 × 10^6 CFU/ml, 16–18 h, 37°C, independent triplicates
Procedure: as §1

[7] = tested on: PREC2; settings: Escherichia coli, MHB, 1 × 10^6 CFU/ml, 16–18 h, 37°C, independent triplicates
Procedure: as §1

[8] = tested on: PREC3; settings: Escherichia coli, MHB, 1 × 10^6 CFU/ml, 16–18 h, 37°C, independent triplicates
Procedure: as §1

[9] = tested on: CRAB2; settings: Acinetobacter baumannii, MHB, 1 × 10^6 CFU/ml, 16–18 h, 37°C, independent triplicates
Procedure: as §1

[10] = tested on: CREC4; settings: Escherichia coli, MHB, 1 × 10^6 CFU/ml, 16–18 h, 37°C, independent triplicates
Procedure: as §1

[11] = tested on: En. faecium (Clinical; MDR; pig, faeces), upper row; settings: Enterococcus faecium, En. faecium clinical MDR isolate, MHB, 16–18 h, 37°C, independent triplicates
Procedure: as §1

[12] = tested on: S. aureus ATCC; settings: Staphylococcus aureus, MHB, 1 × 10^6 CFU/ml, 16–18 h, 37°C, independent triplicates
Procedure: as §1

[13] = tested on: CREC7; settings: Escherichia coli, MHB, 1 × 10^6 CFU/ml, 16–18 h, 37°C, independent triplicates
Procedure: as §1

[14] = tested on: CREC1; settings: Escherichia coli, MHB, 1 × 10^6 CFU/ml, 16–18 h, 37°C, independent triplicates
Procedure: as §1

[15] = tested on: CRAB1; settings: Acinetobacter baumannii, MHB, 1 × 10^6 CFU/ml, 16–18 h, 37°C, independent triplicates
Procedure: as §1

[16] = tested on: PREC1; settings: Escherichia coli, MHB, 1 × 10^6 CFU/ml, 16–18 h, 37°C, independent triplicates
Procedure: as §1

[17] = tested on: P. aeruginosa UCBPP-PA14; settings: Pseudomonas aeruginosa, MHB, 1 × 10^6 CFU/ml, 16–18 h, 37°C, independent triplicates
Procedure: as §1

[18] = tested on: En. faecium (Clinical; MDR; pig, faeces), lower row; settings: Enterococcus faecium, En. faecium clinical MDR isolate, MHB, 16–18 h, 37°C, independent triplicates
Procedure: as §1

[19] = tested on: Salmonella SL1344; settings: MHB, 1 × 10^6 CFU/ml, 16–18 h, 37°C, independent triplicates
Procedure: as §1

[20] = tested on: CRKP5; settings: Klebsiella pneumoniae, MHB, 1 × 10^6 CFU/ml, 16–18 h, 37°C, independent triplicates
Procedure: as §1

[21] = tested on: CRCB2; settings: Citrobacter, MHB, 1 × 10^6 CFU/ml, 16–18 h, 37°C, independent triplicates
Procedure: as §1

[22] = tested on: CRKP6; settings: Klebsiella pneumoniae, MHB, 1 × 10^6 CFU/ml, 16–18 h, 37°C, independent triplicates
Procedure: as §1

[23] = tested on: PRCB1; settings: Citrobacter, MHB, 1 × 10^6 CFU/ml, 16–18 h, 37°C, independent triplicates
Procedure: as §1

[24] = tested on: CRKP1; settings: Klebsiella pneumoniae, MHB, 1 × 10^6 CFU/ml, 16–18 h, 37°C, independent triplicates
Procedure: as §1

[25] = tested on: CRKP2; settings: Klebsiella pneumoniae, MHB, 1 × 10^6 CFU/ml, 16–18 h, 37°C, independent triplicates
Procedure: as §1

[26] = tested on: CREC5; settings: Escherichia coli, MHB, 1 × 10^6 CFU/ml, 16–18 h, 37°C, independent triplicates
Procedure: as §1

[27] = tested on: CRKP3; settings: Klebsiella pneumoniae, MHB, 1 × 10^6 CFU/ml, 16–18 h, 37°C, independent triplicates
Procedure: as §1

[28] = tested on: CRKP4; settings: Klebsiella pneumoniae, MHB, 1 × 10^6 CFU/ml, 16–18 h, 37°C, independent triplicates
Procedure: as §1

For `NCC[C@H](O)C(=O)N[C@@H]1C[C@H](N)[C@@H](O[C@H]2O[C@H](CN)[C@@H](O)[C@H](O)[C@H]2O)[C@H](O)[C@H]1O[C@H]1O[C@H](CO)[C@@H](O)[C@H](N)[C@H]1O` [AMK, amikacin], the MIC [1] was 4 µg/mL (≈ 6.83 µM), the MIC [2] was 2 µg/mL (≈ 3.42 µM) and the MIC [3] was 4 µg/mL (≈ 6.83 µM). For the same compound, the MIC [4] was 16 µg/mL (≈ 27.3 µM), the MIC [5] was 8 µg/mL (≈ 13.7 µM) and the MIC [6] was 2 µg/mL (≈ 3.42 µM). The MIC [7] was 8 µg/mL (≈ 13.7 µM), the MIC [8] was 2 µg/mL (≈ 3.42 µM) and the MIC [9] was > 32 µg/mL. It also gave an MIC [10] of 4 µg/mL (≈ 6.83 µM), an MIC [11] of 16 µg/mL (≈ 27.3 µM) and an MIC [12] of 8 µg/mL (≈ 13.7 µM). For the same compound, the MIC [13] was 2 µg/mL (≈ 3.42 µM), the MIC [14] was 2 µg/mL (≈ 3.42 µM) and the MIC [15] was > 32 µg/mL. It also gave an MIC [16] of 2 µg/mL (≈ 3.42 µM).
`CNC(C)C1CCC(N)C(OC2C(N)CC(N)C(OC3OCC(C)(O)C(NC)C3O)C2O)O1` (centres unmarked) [GEN, gentamicin] was tested, and the MIC [1] was > 32 µg/mL, the MIC [2] was > 32 µg/mL and the MIC [4] was > 32 µg/mL. The MIC [17] was 2 µg/mL (≈ 4.19 µM), the MIC [7] was > 32 µg/mL and the MIC [8] was 2 µg/mL (≈ 4.19 µM). For the same compound, the MIC [9] was > 32 µg/mL, the MIC [10] was > 32 µg/mL and the MIC [11] was 8 µg/mL (≈ 16.8 µM). The MIC [12] was 2 µg/mL (≈ 4.19 µM), the MIC [14] was > 32 µg/mL and the MIC [15] was > 32 µg/mL. The MIC [18] was 32 µg/mL (≈ 67 µM), the MIC [16] was > 32 µg/mL and the MIC [19] was 4 µg/mL (≈ 8.38 µM).
With `CN(C)[C@@H]1C(O)=C(C(N)=O)C(=O)[C@@]2(O)C(O)=C3C(=O)c4c(O)cccc4[C@@](C)(O)[C@H]3C[C@@H]12` [TET, tetracycline] the MIC [1] was > 32 µg/mL, the MIC [2] was > 32 µg/mL and the MIC [3] was > 32 µg/mL. For the same compound, the MIC [20] was > 32 µg/mL, the MIC [4] was > 32 µg/mL and the MIC [21] was > 32 µg/mL. For the same compound, the MIC [17] was 16 µg/mL (≈ 36 µM), the MIC [5] was > 32 µg/mL and the MIC [6] was 16 µg/mL (≈ 36 µM). For the same compound, the MIC [7] was > 32 µg/mL, the MIC [8] was > 32 µg/mL and the MIC [9] was > 32 µg/mL. For the same compound, the MIC [10] was > 32 µg/mL, the MIC [22] was 32 µg/mL (≈ 72 µM) and the MIC [23] was > 32 µg/mL. For the same compound, the MIC [11] was > 32 µg/mL, the MIC [24] was > 32 µg/mL and the MIC [12] was < 1 µg/mL. The MIC [13] was > 32 µg/mL, the MIC [25] was > 32 µg/mL and the MIC [14] was > 32 µg/mL. The MIC [15] was > 32 µg/mL, the MIC [26] was > 32 µg/mL and the MIC [18] was > 32 µg/mL. For the same compound, the MIC [16] was > 32 µg/mL, the MIC [19] was 4 µg/mL (≈ 9 µM) and the MIC [27] was > 32 µg/mL. For the same compound, the MIC [28] was > 32 µg/mL.
